These results are taken from article PMC11785791, “Cryo-EM structure of the calcium-sensing receptor complexed with the kokumi substance γ-glutamyl-valyl-glycine” (Scientific Reports, 2025).

One experiment concerns the target T1, human CaSR E297A mutant (Homo sapiens, UniProt P41180, E297A).
T1 construct: (N); expressed in transfected cells; host or cells: PEAKrapid cells (ATCC), pcDNA 3.1, transient transfection
T1 sequence (P41180 20-1078 E297A): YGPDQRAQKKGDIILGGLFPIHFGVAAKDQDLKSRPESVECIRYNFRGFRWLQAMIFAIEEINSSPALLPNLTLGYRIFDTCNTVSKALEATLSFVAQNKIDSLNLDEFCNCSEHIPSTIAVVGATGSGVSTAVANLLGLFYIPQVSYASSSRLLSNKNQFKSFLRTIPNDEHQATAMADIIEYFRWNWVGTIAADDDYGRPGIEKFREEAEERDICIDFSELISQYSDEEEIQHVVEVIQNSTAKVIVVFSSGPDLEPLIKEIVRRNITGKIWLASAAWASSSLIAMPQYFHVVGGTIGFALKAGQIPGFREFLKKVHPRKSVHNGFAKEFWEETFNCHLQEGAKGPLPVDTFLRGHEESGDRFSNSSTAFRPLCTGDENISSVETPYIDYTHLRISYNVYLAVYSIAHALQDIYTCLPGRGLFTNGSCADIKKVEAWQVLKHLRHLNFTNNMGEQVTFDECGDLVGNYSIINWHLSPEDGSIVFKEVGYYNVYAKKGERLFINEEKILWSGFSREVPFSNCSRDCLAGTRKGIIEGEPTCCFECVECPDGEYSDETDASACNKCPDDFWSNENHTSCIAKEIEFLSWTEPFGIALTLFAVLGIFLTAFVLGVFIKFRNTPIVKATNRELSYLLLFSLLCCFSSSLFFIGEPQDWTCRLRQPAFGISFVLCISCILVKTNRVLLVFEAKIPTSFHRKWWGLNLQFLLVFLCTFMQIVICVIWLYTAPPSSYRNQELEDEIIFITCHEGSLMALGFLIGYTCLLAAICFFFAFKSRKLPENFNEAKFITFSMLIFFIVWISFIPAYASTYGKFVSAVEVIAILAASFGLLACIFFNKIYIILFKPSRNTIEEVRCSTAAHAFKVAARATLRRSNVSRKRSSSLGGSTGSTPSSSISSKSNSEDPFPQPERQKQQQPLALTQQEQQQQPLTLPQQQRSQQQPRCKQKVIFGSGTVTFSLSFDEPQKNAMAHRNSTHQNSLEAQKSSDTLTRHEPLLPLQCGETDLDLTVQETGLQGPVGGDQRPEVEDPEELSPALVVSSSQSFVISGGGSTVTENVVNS
Nature of the experiment: Calcium mobilization assay, CaSR E297A mutant. Type of experiment: cell-based. Conditions: for Response in calcium mobilization assay: in words. As for the experimental part:
(§1) The CaSR receptor responsiveness was assessed by using PEAK^rapid cells (ATCC, Manassas, VA, USA) transiently transfected with the receptor DNA by the method reported by Kitajima et al.[6]. Briefly, human CaSR or its mutant cDNA with a signal sequence (MAFYSCCWVLLALTWHTSA) followed by FLAG-tag (DYKDDDDK) were inserted into pcDNA 3.1 expression vectors in Opti-MEM I medium (Thermo Fisher Scientific), mixed with FuGENE 6 (Roche), and poured onto PEAK^rapid cells grown at a submaximal concentration. After culturing for 24 h in 96-well plates, the cells were incubated with 5 µM Calcium-5 solution (Calcium-5 assay kit, Molecular Devices) for 45–60 min, and measurements were performed using a plate reader (FDSS/µCELL, Hamamatsu Photonics, Shizuoka, Japan) and its associated software. The activation of CaSR expressed in cells increases the intracellular Ca^2+ concentration, which is measured using a Ca^2+-sensitive dye. The binding of Ca^2+ to the Ca^2+-sensitive dye increases dye fluorescence, with excitation at 485 nm and emission at 525 nm. Test compounds were dissolved and administered in the assay buffer (146 mM NaCl, 1 mM MgSO4, 20 mM HEPES, 1 mM CaCl2, 2.5 mM probenecid, and 1.39 mM glucose, pH 7.4). Transiently transfected cells were challenged with compounds and compared with the vehicle alone and/or mock-transfected cells. The concentration dependence of the fluorescence intensity (influx of Ca^2+) was analyzed using the plate reader at 1 s intervals for 180 s. For the dose–response curve calculations, peak fluorescence responses after the addition of compounds were corrected for, normalized to the background fluorescence (ΔF/F = –F − F0)/F0), and baseline noise was subtracted. Dose–response curves were calculated by non-linear regression using GraphPad PRISM 8.0.

A further experiment has as its target T2, human CaSR P39S mutant (Homo sapiens, UniProt P41180, P39S).
T2 construct: expressed in transfected cells; host or cells: PEAKrapid cells (ATCC), pcDNA 3.1, transient transfection
T2 sequence (P41180 20-1078 P39S): T1 sequence (P41180 20-1078 E297A) with P20S, A278E
Nature of the experiment: Calcium mobilization assay, CaSR P39S mutant. It is filed as cell-based. Conditions: for Response in calcium mobilization assay: in words. As for the experimental part: as §1

Substitutions are numbered along the chain they refer to. *1 amine or outer side, *2 acyl side, *3 side chain or, on linkers, in order; H or OH if unused. Where a SMILES comes first, the peptide text is derived from it. γGlu = O=C(O)[CH](CCC(=O)[*:2])N[*:1]

Take `[Ca+2].[Cl-].[Cl-]` [CaCl2]: the “Emax (% of wild-type values)” value is listed as 86.0 % of WT at human CaSR E297A mutant and 74.5 % of WT at human CaSR P39S mutant. Moreover, the EC50 (usually the concentration that produces a half-maximal response) on human CaSR E297A mutant (mean ± s.e.m., n = 3) turned out to be 6.58 ± 0.3 mM; at human CaSR P39S mutant (mean ± s.e.m., n = 3), 7.52 ± 0.23 mM.

With `N[C@@H](Cc1ccc(O)cc1)C(=O)O` [L-Tyr, L-tyrosine], the “Response in calcium mobilization assay” value on human CaSR E297A mutant and at human CaSR P39S mutant was “no response” in each case.

For `CC(C)[C@H](NC(=O)CC[C@H](N)C(=O)O)C(=O)O` [γ-EV, γ-glutamyl-valine], the “Response in calcium mobilization assay” value at human CaSR E297A mutant and at human CaSR P39S mutant was “no response” in each case.

Regarding `CC(C)C(NC(=O)CCC(N)C(=O)O)C(=O)NCC(=O)O` (stereo not drawn) [γ-EVG, γ-glutamyl-valyl-glycine] (γGlu-Val-Gly-OH; configuration not given here), the “Response in calcium mobilization assay” value is “greatly reduced the response” at human CaSR E297A mutant and “large decrease in the response” on human CaSR P39S mutant.
